In paper PMC3740683, “ML212: A small-molecule probe for investigating fluconazole resistance mechanisms in Candida albicans” (Beilstein Journal of Organic Chemistry, 2013):
In brackets after ≈: the same amount, converted by molar mass.

Key:
[1] = tested on: C. albicans CaCi-8; experiment: Secondary assay 1: CaCi-8 with 8 µg/mL fluconazole (Alamar Blue growth); assay type: cell-based, Candida albicans; conditions: Candida albicans, CACI8, 48 h, read-out: CaCi-8 IC50
Method: All of the compounds prepared above were evaluated for their ability to chemosensitize the C. albicans test strains CaCi-2 and CaCi-8 towards fluconazole. […] The DMSO/fluconazole combination served as an internal control. […]
(1/OD measured) × (desired final volume of inoculum) × 0.3 = volume of fungal culture (µL) to add to desired volume of growth medium. When added to media in wells, this yields a calculated starting OD of the fungal inoculum of 0.00015. […]
3) Use a Thermo Combi nL to dispense 20 µL/well of assay media into all wells. […]
EnVision (Perkin Elmer) plate reader setup: Ex 544 nm, Em 590 nm, bandwidth 12 nm, top read.
Secondary assay 1: CaCi-8 with 8 µg/mL fluconazole […]
35808016); geldanamycin (AG Scientific Catalog no. […]
PBS w/o calcium and magnesium (Cellgro Catalog no. 21-040-CV)
Synthetic defined growth medium
RPMI 1640 medium, (powder without sodium bicarbonate; Invitrogen Catalog no. […]
no. 028K0760); glucose 40% (w/v) in water (Sigma Catalog no. G-5400); MOPS buffer […]
1) Prepare 1× RPMI medium by dissolving 10.4 g powdered medium in 800 mL […]
2) Add 34.52 g MOPS. While stirring, adjust pH to 7.0 with 10 N NaOH.
3) Add 10 mL uridine solution, 50 mL glucose solution, adjust final volume to 1000 […]
Test strain: C. albicans CaCi-8
1) Inoculate 500 µL of strain from cryopreserved stock into a 250 mL shaker flask containing 30 mL growth medium. Shake at 30 °C overnight (16 hours).
(§1) 2) Read OD 600 of 1 mL of fungal culture in a cuvette using a standard optical density reader (Eppendorf BioPhotometer Plus), with growth medium as a […]
3) Dilute to a desired volume of fungal inoculum according to following formula: […]
1) Add fluconazole stock solution to fungal inoculum to achieve 8 µg/mL.
2) Add Pen/Strep to media to 1% concentration.
4) Dispense geldanamycin in positive control wells using Thermo Combi nL for a final concentration of 3 µM.
(§2) 5) Then, pin 100 nL of test compound from compound plates into assay plates using a CyBi-Well pin tool.
(§3) 6) Dispense 20 µL/well of culture into the assay media in all wells.
(§4) 7) Incubate the plates in a humidified (90% humidity) Liconic incubator at 37 °C without agitation for 48 hours.
(§5) 8) Dilute Alamar Blue 1:40 in Ca/Mg-free PBS.
(§6) 9) To all plates, add 5 µL/well of the diluted Alamar Blue to plates to a final dilution […]
10) Incubate the plates for 2 hours. […]

[2] = tested on: calcineurin-dependent signaling pathway; experiment: Yeast-reporter assay, calcineurin-dependent signaling pathway; assay type: cell-based; conditions: Saccharomyces cerevisiae
[3] = Solubility in PBS; assay type: physicochemical; conditions: aqueous buffer
[4] = tested on: C. albicans CaCi-2; experiment: Secondary assay 2: CaCi-2 in the absence of fluconazole; assay type: cell-based; conditions: Candida albicans, CACI2; no fluconazole, 48 h incubation; read-out: IC50 against C. albicans in the absence of fluconazole
Method: as §2, §3, §4, §5, §6
10) Incubate the plates for 2 hours.
11) Read the relative fluorescence intensity (RFU) of wells on a standard plate reader as a measure of relative fungal growth. EnVision (Perkin Elmer) plate reader setup: Ex 544 nm, Em 590 nm, bandwidth 12 nm, top read.
Secondary assay 2: CaCi-2 in the absence of fluconazole
Clear, flat-bottom, black 384-well plates (Corning Catalog no. 3712BC; Lot no.
35808016); geldanamycin (AG Scientific Catalog no. G-1047) 15 mM stock solution in […]
as §1
measured) × (desired final volume of inoculum) × 0.3 = volume of fungal culture […]
this yields a calculated starting OD of the fungal inoculum of 0.00015. […]
11) Read relative fluorescence intensity (RFU) of wells on a standard plate reader as […]
measure of relative fungal growth. EnVision (Perkin Elmer) plate reader settings: […]

## COC(=O)Cn1nc(-c2cccc(OC)c2)c2ccccc21 [Compound 36]
[1]
  IC50: 1500 ± 600 nM
[2]
  IC50: > 26 µM
[3]
  solubility: 55 µM (≈ 16.3 µg/mL)
[4]
  IC50: > 26 µM
